{
  "source": "patent US8932818B2",
  "about": "“Screening assays for compounds that modulate programmed ribosomal frameshifting” (PTC Therapeutics, Inc., priority 2008, dated 2015)",
  "test_system": "HIV-1 frameshift signal sequence",
  "assay": "dual luciferase assay for viral programmed ribosomal frameshifting",
  "format": "cell-based",
  "source_text": "For example, the ability of a compound to modulate the efficiency of viral programmed ribosomal frameshifting can be validated in a dual luciferase assay comprising: (a) contacting a compound with a host cell expressing a nucleic acid construct comprising in 5′ to 3′ order: (i) a promoter sequence; (ii) the Renilla luciferase (rluc) gene; (iii) the HIV-1 frameshift signal sequence; (iv) the firefly luciferase gene (flue); and (v) a polyadenylation sequence; and (b) detecting the activity of Renilla luciferase versus that of firefly luciferase, wherein a compound that modulates the efficiency of programmed ribosomal frameshifting is validated if (i) the activity of Renilla luciferase in the presence of the compound is not changed relative to the activity of Renilla luciferase detected in the absence of the compound; and (ii) the activity of firefly luciferase detected in the presence of the compound is changed relative to the activity of firefly luciferase detected in the absence of the compound. In other words, the ratio of Renilla luciferase to firefly luciferase is changed in the presence of the compound relative to the absence of the compound.\nThe ability of Compound 1 to modulate the efficiency of viral programmed ribosomal frameshifting was measured using a dual luciferase assay (as described in Biswas, et al., 2004, J. Virol. 78(4):2082-2087).",
  "data": [
    {"smiles": "COc1ccc2c(c1)C(=O)N(c1ccc(C(C)C)cc1)C2", "note": "[Compound 1, 2-(4-isopropylphenyl)-6-methoxyisoindolin-1-one]", "values": [
      {"measurement": "modulates the efficiency of viral programmed ribosomal frameshifting", "setting": "dual luciferase assay", "value": "modulates the efficiency of viral programmed ribosomal frameshifting"},
      {"measurement": "inhibition in luciferase activity relative to negative control", "setting": "relative to 0.5% DMSO, average at compound test concentration approximately 5 μM to approximately 130 μM (FIG. 1)", "value": "approximately 5 fold"}
    ]}
  ]
}
